We go through 1 compound from patent US7037656B2, “Methods and compositions for identifying ligands for nuclear receptors” (priority 2000, dated 2006).

Test [1] concerns Cf ΔA/B EcR + RXR β + GRIP1. Kind of test: Yeast 6x EcRE-lacZ β-galactosidase transactivation assay. Type of test: cell-based, Choristoneura fumiferana; mouse. To be noted: RH 5992 10 μM, 4 hours, DMSO control 0.205. The protocol: (§1) The human RXR α (Genbank accession number X52773), mouse RXR β (Genbank accession number X66224) or mouse RXR γ (Genebank accession number X66225) subtypes were expressed in yeast-E. coli multicopy 2μ expression plasmids under regulation of CUP1 promoter with the LEU2 selective marker (1).
(§2) Briefly, yeast cells are cultured in 5 mL of YPD liquid medium overnight at 30° C. The cell culture was diluted 1:20 in YPD media and further grown until cell density reached an O.D of 0.6. at OD600. The cells were pelleted by centrifugation and washed with 10 mL of TE+0.1M lithium acetate. Cells are then resuspended in 10 mL TE+0.1M lithium acetate and incubated at 30° C. for 1 hour. Cells are collected and resuspended in 0.5 mL of TE+ 0.1M lithium acetate. Aliquots of cells (50 μL), were incubated for 15 minutes at 30° C. with 1–2 μg plasmid DNA in the presence of 5 μg of denatured salmon sperm DNA as DNA carrier. In the case of co-transformation, the indicated plasmids were added simultaneously. 50% polyethyleneglycol of molecular weight 4000, diluted in TE, was added to a final concentration of 35%. DMSO was added to the transformation solution simultaneously to a final concentration 3%. The samples were mixed well by vortexing and incubated for an additional 30 minutes at 30° C. The cell mixture is then heated for 15 minutes at 42° C. […]

In test [2] the target is T1, Cf ΔA/B EcR + RXR γ + GRIP1 (Choristoneura fumiferana, UniProt O77240).
T1 construct: human ubiquitin (76 aa) (N, cleaved yes); expressed in transfected cells; host or cells: yeast (Saccharomyces cerevisiae)
T1 sequence (O77240 entry or part of it, stated change not applied): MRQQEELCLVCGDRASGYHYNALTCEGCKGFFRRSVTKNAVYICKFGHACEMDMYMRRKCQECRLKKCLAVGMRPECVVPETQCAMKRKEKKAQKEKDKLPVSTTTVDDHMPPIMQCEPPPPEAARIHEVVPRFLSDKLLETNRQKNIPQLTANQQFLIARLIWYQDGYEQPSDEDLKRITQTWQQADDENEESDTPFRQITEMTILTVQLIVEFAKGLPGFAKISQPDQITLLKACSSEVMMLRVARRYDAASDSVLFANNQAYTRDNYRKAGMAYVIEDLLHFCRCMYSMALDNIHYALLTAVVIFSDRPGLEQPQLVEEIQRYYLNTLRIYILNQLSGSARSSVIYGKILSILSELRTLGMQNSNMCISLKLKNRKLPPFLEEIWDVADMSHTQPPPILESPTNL
T1 sequence (P28705 whole entry partner): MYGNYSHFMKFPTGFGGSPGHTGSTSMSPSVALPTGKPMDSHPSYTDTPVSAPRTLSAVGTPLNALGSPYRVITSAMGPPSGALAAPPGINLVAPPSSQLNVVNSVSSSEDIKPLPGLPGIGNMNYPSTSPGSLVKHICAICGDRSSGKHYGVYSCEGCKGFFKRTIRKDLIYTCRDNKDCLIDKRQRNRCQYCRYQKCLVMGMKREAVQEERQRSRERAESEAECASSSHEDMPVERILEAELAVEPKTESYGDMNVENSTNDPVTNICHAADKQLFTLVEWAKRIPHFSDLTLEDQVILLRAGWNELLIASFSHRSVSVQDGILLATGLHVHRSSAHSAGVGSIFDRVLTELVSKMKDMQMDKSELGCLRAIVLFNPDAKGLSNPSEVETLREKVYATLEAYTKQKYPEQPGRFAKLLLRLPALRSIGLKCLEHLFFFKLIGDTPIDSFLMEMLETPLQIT
The description is as above. It is filed as cell-based, Choristoneura fumiferana; mouse. The following applies: RH 5992 10 μM, 4 hours, DMSO control 0.200. The protocol:
as §1, §2

Test [3] concerns the target T2, Aa AB EcR/Aa USPa and SMRT (Aedes aegypti, UniProt P49880).
T2 construct: human ubiquitin (76 aa) (N, cleaved yes); expressed in transfected cells; host or cells: yeast (Saccharomyces cerevisiae)
Kind of test: Yeast 6x EcRE-lacZ reporter assay with SMRT (ligand-dependent down regulation). It is filed as cell-based. To be noted: 10 μM; Aa AB EcR/Aa USPa co-expressed with SMRT, constitutive reporter expression without ligand (FIG. 10A).
Source text: FIGS. 10A and 10B are graphs showing the roles of the coactivators and co-repressors in transactivation of AaΔEcR. Interaction of different transcriptional factors in combination with the heterodimers AaΔEcR/USPa or AaΔEcR/USPb (FIG. 10A). […] The yeast strains carrying the reporter plasmid which contains 6 EcRE response elements coupled with E. coli β gal gene in combination with the presence of different plasmids for expression of different USPs, AaΔEcR and coactivators/repressors. The final concentration of all ecdysteroid analogues was 10 μM. The data are presented as a median set of at least 8 independent experiments plus SD.
as §2, with “simultaneously.” for “simultaneously. 50% polyethyleneglycol of molecular weight 4000, diluted in TE, was added to a final concentration of 35%. DMSO was added to the transformation solution simultaneously to a final concentration 3%. The samples were mixed well by vortexing and incubated for an additional 30 minutes at 30° C. The cell mixture is then heated for 15 minutes at 42° C.”

T2 sequence (P49880 with tags, fused parts or gaps): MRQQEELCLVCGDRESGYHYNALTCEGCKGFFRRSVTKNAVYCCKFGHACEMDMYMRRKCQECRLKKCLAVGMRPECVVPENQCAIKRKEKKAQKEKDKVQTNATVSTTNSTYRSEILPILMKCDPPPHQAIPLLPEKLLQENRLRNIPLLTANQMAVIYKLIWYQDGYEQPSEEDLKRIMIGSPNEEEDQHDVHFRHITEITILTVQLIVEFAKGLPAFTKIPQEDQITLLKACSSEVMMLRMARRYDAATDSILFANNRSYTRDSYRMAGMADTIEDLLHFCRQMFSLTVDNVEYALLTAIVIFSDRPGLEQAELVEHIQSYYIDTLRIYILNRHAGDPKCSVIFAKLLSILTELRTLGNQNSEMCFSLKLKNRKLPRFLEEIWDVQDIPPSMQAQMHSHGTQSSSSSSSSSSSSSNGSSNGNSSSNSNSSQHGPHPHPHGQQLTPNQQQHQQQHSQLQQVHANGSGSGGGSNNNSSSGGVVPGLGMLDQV

On to `CCc1ccc(C(=O)NN(C(=O)c2cc(C)cc(C)c2)C(C)(C)C)cc1` [RH 5992, tebufenozide], for which the results for the β-galactosidase activity in test [1] and in test [2] were 0.456 and 1.030, respectively. In test [3], the “effect on reporter gene expression (in words)” value is recorded as “suppression of the levels of reporter gene expression”.
